The target of assay [1] is T1, CDK9/CycT1 (Homo sapiens, UniProt P50750).
T1 construct: Recombinant full-length His-tagged human CDK9 and CycT1; His; purchased Invitrogen PV4131; host or cells: insect cells
Kind of assay: CDK9/CycT1 high ATP kinase assay (Method 1b). It is filed as biochemical. The settings on record: 2 mM ATP. The method, then:
1b. CDK9/CycT1 High ATP Kinase Assay
CDK9/CycT1-inhibitory activity of compounds of the present invention at a high ATP concentration after preincubation of enzyme and test compounds was quantified employing the CDK9/CycT1 TR-FRET assay as described in the following paragraphs.
Recombinant full-length His-tagged human CDK9 and CycT1, expressed in insect cells and purified by Ni-NTA affinity chromatography, were purchase from Invitrogen (Cat. No PV4131). As substrate for the kinase reaction biotinylated peptide biotin-Ttds-YISPLKSPYKISEG (C-terminus in amid form) was used which can be purchased e.g. form the company JERINI peptide technologies (Berlin, Germany).
For the assay 50 nl of a 100 fold concentrated solution of the test compound in DMSO was pipetted into a black low volume 384 well microtiter plate (Greiner Bio-One, Frickenhausen, Germany), 2 μl of a solution of CDK9/CycT1 in aqueous assay buffer [50 mM Tris/HCl pH 8.0, 10 mM MgCl2, 1.0 mM dithiothreitol, 0.1 mM sodium ortho-vanadate, 0.01% (v/v) Nonidet-P40 (Sigma)] were added and the mixture was incubated for 15 min at 22° C. to allow pre-binding of the test compounds to the enzyme before the start of the kinase reaction. Then the kinase reaction was started by the addition of 3 μl of a solution of adenosine-tri-phosphate (ATP, 3.3 mM=>final conc. in the 5 μl assay volume is 2 mM) and substrate (1.67 μM=>final conc. in the 5 μl assay volume is 1 μM) in assay buffer and the resulting mixture was incubated for a reaction time of 25 min at 22° C. The concentration of CDK9/CycT1 was adjusted depending of the activity of the enzyme lot and was chosen appropriate to have the assay in the linear range, typical concentrations were in the range of 0.5 μg/ml. The reaction was stopped by the addition of 5 μl of a solution of TR-FRET detection reagents (0.2 μM streptavidine-XL665 [Cisbio Bioassays, Codolet, France] and 1 nM anti-RB(pSer807/pSer811)-antibody from BD Pharmingen [#558389] and 1.2 nM LANCE EU-W1024 labeled anti-mouse IgG antibody [Perkin-Elmer, product no. AD0077]) in an aqueous EDTA-solution (100 mM EDTA, 0.2% (w/v) bovine serum albumin in 100 mM HEPES/NaOH pH 7.0).
The resulting mixture was incubated 1 h at 22° C. to allow the formation of complex between the phosphorylated biotinylated peptide and the detection reagents. Subsequently the amount of phosphorylated substrate was evaluated by measurement of the resonance energy transfer from the Eu-chelate to the streptavidine-XL. Therefore, the fluorescence emissions at 620 nm and 665 nm after excitation at 350 nm was measured in a HTRF reader, e.g. a Rubystar (BMG Labtechnologies, Offenburg, Germany) or a Viewlux (Perkin-Elmer). The ratio of the emissions at 665 nm and at […] was taken as the measure for the amount of phosphorylated substrate. The data were normalised (enzyme reaction without inhibitor=0% inhibition, all other assay components but no enzyme=100% inhibition).

In assay [2] the test system is HeLa cells. Description: Proliferation assay, HeLa (Method 3). Conditions: Homo sapiens, HeLa, 96 h, 4 days, crystal violet; read-out: Inhibition of HeLa cell proliferation IC50. The format is cell-based, human. The protocol: Cultivated tumour cells (HeLa, human cervical tumour cells, ATCC CCL-2; NCI-H460, human non-small cell lung carcinoma cells, ATCC HTB-177; A2780, human ovarian carcinoma cells, ECACC #93112519; DU 145, hormone-independent human prostate carcinoma cells, ATCC HTB-81; HeLa-MaTu-ADR, multidrug-resistant human cervical carcinoma cells, EPO-GmbH Berlin; Caco-2, human colorectal carcinoma cells, ATCC HTB-37; B16F10, mouse melanoma cells, ATCC CRL-6475) were plated at a density of 5,000 cells/well (DU145, HeLa-MaTu-ADR), 3,000 cells/well (NCI-H460, HeLa), 2,500 cells/well (A2780), 1,500 cells/well (Caco-2), or 1,000 cells/well (B16F10) in a 96-well multititer plate in 200 μL of their respective growth medium supplemented 10% fetal calf serum. After 24 hours, the cells of one plate (zero-point plate) were stained with crystal violet (see below), while the medium of the other plates was replaced by fresh culture medium (200 μl), to which the test substances were added in various concentrations (0 μM, as well as in the range of 0.001-10 μM; the final concentration of the solvent dimethyl sulfoxide was 0.5%). The cells were incubated for 4 days in the presence of test substances. Cell proliferation was determined by staining the cells with crystal violet: the cells were fixed by adding 20 μl/measuring point of an 11% glutaric aldehyde solution for 15 minutes at room temperature. After three washing cycles of the fixed cells with water, the plates were dried at room temperature. The cells were stained by adding 100 μl/measuring point of a 0.1% crystal violet solution (pH 3.0). After three washing cycles of the stained cells with water, the plates were dried at room temperature. The dye was dissolved by adding 100 μl/measuring point of a 10% acetic acid solution. The extinction was determined by photometry at a wavelength of 595 nm. The change of cell number, in percent, was calculated by normalization of the measured values to the extinction values of the zero-point plate (=0%) and the extinction of the untreated (0 μm) cells (=100%). The IC50 values (inhibitory concentration at 50% of maximal effect) were determined by means of a 4 parameter fit.

This passage reports IC50 results from patent publication US9650361B2, “N-(pyridin-2-yl)pyrimidin-4-amine derivatives containing a sulfoximine group” (BAYER PHARAM AKTIENGESELLSCHAFT, priority 2012, dated 2017).

T1 sequence (P50750 whole entry): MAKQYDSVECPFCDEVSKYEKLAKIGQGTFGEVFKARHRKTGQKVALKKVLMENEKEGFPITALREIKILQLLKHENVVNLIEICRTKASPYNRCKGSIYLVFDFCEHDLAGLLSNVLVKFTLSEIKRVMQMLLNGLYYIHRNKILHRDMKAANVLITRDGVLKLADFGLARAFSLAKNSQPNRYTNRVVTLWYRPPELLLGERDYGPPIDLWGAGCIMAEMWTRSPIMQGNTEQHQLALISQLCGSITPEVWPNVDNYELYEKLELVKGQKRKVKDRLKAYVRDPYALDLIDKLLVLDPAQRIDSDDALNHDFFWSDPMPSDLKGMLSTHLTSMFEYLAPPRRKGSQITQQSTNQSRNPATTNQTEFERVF
T1 sequence (O60563 whole entry partner): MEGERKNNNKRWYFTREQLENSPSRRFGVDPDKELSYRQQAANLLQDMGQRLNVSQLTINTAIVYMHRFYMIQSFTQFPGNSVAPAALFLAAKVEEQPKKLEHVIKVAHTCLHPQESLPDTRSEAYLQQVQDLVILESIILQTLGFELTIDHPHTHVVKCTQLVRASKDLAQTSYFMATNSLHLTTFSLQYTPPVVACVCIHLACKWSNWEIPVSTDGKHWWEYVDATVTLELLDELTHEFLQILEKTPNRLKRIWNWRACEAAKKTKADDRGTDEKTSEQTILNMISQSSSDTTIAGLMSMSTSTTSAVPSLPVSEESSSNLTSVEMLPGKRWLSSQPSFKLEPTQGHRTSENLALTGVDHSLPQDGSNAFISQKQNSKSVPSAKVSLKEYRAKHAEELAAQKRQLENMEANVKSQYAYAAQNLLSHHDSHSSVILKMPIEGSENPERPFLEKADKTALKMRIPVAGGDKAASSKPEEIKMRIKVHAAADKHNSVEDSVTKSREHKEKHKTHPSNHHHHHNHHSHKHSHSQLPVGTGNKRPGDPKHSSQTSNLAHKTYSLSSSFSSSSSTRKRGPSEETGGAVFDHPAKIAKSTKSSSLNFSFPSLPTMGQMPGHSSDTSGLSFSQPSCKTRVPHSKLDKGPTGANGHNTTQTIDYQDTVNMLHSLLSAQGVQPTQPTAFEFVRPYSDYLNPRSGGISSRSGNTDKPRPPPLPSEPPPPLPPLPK

For the compound `CCS(=N)(=O)Cc1ccnc(Nc2cc(-c3ccc(F)cc3OC)ncn2)c1` (racemic) [Example 11, (rac)-N-{4-[(S-Ethylsulfonimidoyl)methyl]pyridin-2-yl}-6-(4-fluoro-2-methoxyphenyl)pyrimidin-4-amine], the IC50 stood at 194 nM in assay [1] and 338 nM in assay [2].
